Laboratory results as given in patent publication US11655244B2, “Carbazole compounds and methods of use thereof” (GSNO Therapeutics, Inc, priority 2017, dated 2023).
Entries after “also recorded” stand apart in the source; their conditions may differ.

Tests used:
[1] = tested on: Bleomycin-induced idiopathic pulmonary fibrosis model in male C57BL/6 mice; assay: Bleomycin-induced idiopathic pulmonary fibrosis model; assay type: in vivo; conditions: 10 mg/kg, i.p., once daily from day 14 to 28
Description: Compound 17 was made-up fresh every 4 days. A required amount of the test compound was weighed in a glass vial and the purity factor was calculated. A stock solution of 1 mg/ml (10 mg/kg) was made in distilled water (pH 8) and the subsequent 3 and 1 mg/kg doses (concentrations) were obtained by serial dilution of the 1 mg/ml stock solution. A clear and transparent solution was observed. Animals were dosed with Compound 17 at 1 mg/kg, 3 mg/kg and 10 mg/kg, i.p (intraperitoneal), once daily from day 14 to 28.
Pirfenidone was weighed in a glass vial and suspended in 0.5% methyl cellulose to obtain a 10 mg/ml formulation. A clear homogenous suspension was observed. Animals were dosed with Pirfenidone at 100 mg/kg, p.o., b.i.d., from day 14 to 28.

[2] = tested on: Db/db mouse aorta segments; assay: Vascular reactivity of aorta segments (tensometer); conditions: db/db mice; vs vehicle
Description: Vascular reactivity: Db/db mouse aorta segments were equilibrated in oxygenated PBS (95% O2 and 5% CO2) at 37° C. Following equilibration, 1 μM phenylephrine was added to each ring for submaximal contraction. After stabilization, Compound 17 was added to the rings and the effect on the muscle tone of the aorta segments was monitored with a tensometer as dose-responses from 10^-8 M to 10^-5 M for acetylcholine (“Ach”) and A23187 (5-(methylamino)-2-({(2R,3R,6S,8S,9R,11R)-3,9,11-trimethyl-8-[(1S)-1-methyl-2-oxo-2-(1H-pyrrol-2-yl)ethyl]-1,7-dioxaspiro[5.5]undec-2-yl}methyl)-1,3-benzoxazole-4-carboxylic). 8-Isoprostane was measured in plasma and heart homogenates by standard Elisa methods.

[3] = tested on: non-alcoholic steatohepatitis (NASH) in male C57BL/6 mice; assay: Non-alcoholic steatohepatitis (NASH) model, Streptozotocin plus 60% kcal fat diet; assay type: in vivo; conditions: for liver to body weight ratio: disease control 0.066; for decrease of percentage collagen proportion area (CPA), Masson's trichrome staining, liver: vs disease control
Description: Timed pregnant mice (n=44) were selected for the study. The delivered pups were subcutaneously injected on post-natal day 2 with 200 μg of Streptozotocin and were allowed to remain with the mother until they reached the weanling age. After weanling, the male pups were selected and fed with 60% kcal fat diet (Research Diet-D12492) for next 6 weeks. All the animals were observed once daily for clinical signs and twice daily for morbidity and mortality.
Mice were dosed with vehicle, Compound 17 (at 3 mg/kg or 10 mg/kg) and 10 mg/kg of reference compound (either Obeticholic acid (OCA) or Elafibranor (ELA, GFT505)) once daily before the start of dark cycle (6:00 PM) from day 0 to 21. Animal body weight measurements were made daily for the complete duration of the experiment. Animals were dosed for 21 days (from week 9 to 12) with the test and reference compounds. Blood glucose was estimated before the treatment start, day 11 and on the termination day. Histopathology analysis including the H&E staining, Masson's trichrome staining and the Oil-red-O (ORO) staining was performed for the liver tissues.

Structure (SMILES): NC(=O)CCn1c2ccc(-n3ccnc3)cc2c2ccc(CCC(=O)O)cc21 [Compound 17, 3-(imidazol-1(H)-yl)-7-(2-carboxylethyl)-9(H)-(2-aminocarbonylethyl) carbazole]
- pulmonary fibrosis (Ashcroft score and percentage collagen proportionate area) vs disease control [1]: notable mitigation of pulmonary fibrosis; also recorded: decreased lung fibrosis
- vascular reactivity [2]: increased their vascular reactivity
- ORO (Oil-Red-O) steatosis score relative to disease control ([3]; 3 mg/kg): −28%
- change of liver to body weight ratio compared with disease control ([3]; 3 mg/kg): −18.5%
- steatosis and lobular inflammation in the liver as indicated by the NAS ([3]; 3 mg/kg and 10 mg/kg): markedly reduced steatosis and lobular inflammation in the liver
- weight put on relative to naïve controls at day 21 ([3]; 3 mg/kg): +1.3%
- liver to body weight ratio ([3]; 3 mg/kg): 0.054
- decrease of percentage collagen proportion area (CPA), Masson's trichrome staining, liver ([3]; 3 mg/kg): 29%
- ORO (Oil-Red-O) steatosis score relative to disease control ([3]; 10 mg/kg): −52%
- change of liver to body weight ratio compared with disease control ([3]; 10 mg/kg): −16.2%
- reduction of plasma glucose relative to disease control ([3]; 10 mg/kg, i.p., p<0.01): 17.4%
- weight put on relative to naïve controls at day 21 ([3]; 10 mg/kg): −43%
- liver to body weight ratio ([3]; 10 mg/kg): 0.055
- decrease of percentage collagen proportion area (CPA), Masson's trichrome staining, liver ([3]; 10 mg/kg): 20%
- body weight increase compared with disease controls ([3]; 3 and 10 mg/kg, 21 days of treatment): both less than disease controls
- NAS (in words) ([3]; 3 and 10 mg/kg, p<0.05): significantly decreased the NAS
- change in body weight (g), Mean ([3]; Day 1, 3 mg/kg once daily): 0.00 g
- change in body weight (g), Mean ([3]; Day 1, 10 mg/kg once daily): 0.00 g
- change in body weight (g), Mean ([3]; Day 2, 3 mg/kg once daily): 0.54 g
- change in body weight (g), Mean ([3]; Day 2, 10 mg/kg once daily): 0.65 g
- change in body weight (g), Mean ([3]; Day 3, 3 mg/kg once daily): 0.85 g
- change in body weight (g), Mean ([3]; Day 3, 10 mg/kg once daily): 0.96 g
- change in body weight (g), Mean ([3]; Day 4, 3 mg/kg once daily): 0.48 g
- change in body weight (g), Mean ([3]; Day 4, 10 mg/kg once daily): 0.76 g
- change in body weight (g), Mean ([3]; Day 5, 3 mg/kg once daily): 0.35 g
- change in body weight (g), Mean ([3]; Day 5, 10 mg/kg once daily): 0.81 g
- change in body weight (g), Mean ([3]; Day 6, 3 mg/kg once daily): 0.68 g
- change in body weight (g), Mean ([3]; Day 6, 10 mg/kg once daily): 0.84 g
- change in body weight (g), Mean ([3]; Day 7, 3 mg/kg once daily): 0.54 g
- change in body weight (g), Mean ([3]; Day 7, 10 mg/kg once daily): 0.19 g
- change in body weight (g), Mean ([3]; Day 8, 3 mg/kg once daily): 0.21 g
- change in body weight (g), Mean ([3]; Day 8, 10 mg/kg once daily): 0.78 g
- change in body weight (g), Mean ([3]; Day 9, 3 mg/kg once daily): 0.53 g
- change in body weight (g), Mean ([3]; Day 9, 10 mg/kg once daily): 0.80 g
- change in body weight (g), Mean ([3]; Day 10, 3 mg/kg once daily): 0.56 g
- change in body weight (g), Mean ([3]; Day 10, 10 mg/kg once daily): 0.89 g
- change in body weight (g), Mean ([3]; Day 11, 3 mg/kg once daily): 0.40 g
- change in body weight (g), Mean ([3]; Day 11, 10 mg/kg once daily): 0.91 g
- change in body weight (g), Mean ([3]; Day 12, 3 mg/kg once daily): -0.49 g
- change in body weight (g), Mean ([3]; Day 12, 10 mg/kg once daily): -0.08 g
- change in body weight (g), Mean ([3]; Day 13, 3 mg/kg once daily): 0.81 g
- change in body weight (g), Mean ([3]; Day 13, 10 mg/kg once daily): 0.74 g
- change in body weight (g), Mean ([3]; Day 14, 3 mg/kg once daily): 1.10 g
- change in body weight (g), Mean ([3]; Day 14, 10 mg/kg once daily): 0.71 g
- change in body weight (g), Mean ([3]; Day 15, 3 mg/kg once daily): 0.84 g
- change in body weight (g), Mean ([3]; Day 15, 10 mg/kg once daily): 1.01 g
- change in body weight (g), Mean ([3]; Day 16, 3 mg/kg once daily): 1.32 g
- change in body weight (g), Mean ([3]; Day 16, 10 mg/kg once daily): 1.09 g
- change in body weight (g), Mean ([3]; Day 17, 3 mg/kg once daily): 1.38 g
- change in body weight (g), Mean ([3]; Day 17, 10 mg/kg once daily): 1.13 g
- change in body weight (g), Mean ([3]; Day 18, 3 mg/kg once daily): 1.11 g
- change in body weight (g), Mean ([3]; Day 18, 10 mg/kg once daily): 0.97 g
- change in body weight (g), Mean ([3]; Day 19, 3 mg/kg once daily): 1.22 g
- change in body weight (g), Mean ([3]; Day 19, 10 mg/kg once daily): 1.16 g
- change in body weight (g), Mean ([3]; Day 20, 3 mg/kg once daily): 1.56 g
- change in body weight (g), Mean ([3]; Day 20, 10 mg/kg once daily): 0.80 g
- change in body weight (g), Mean ([3]; Day 21, 3 mg/kg once daily): 1.57 g
- change in body weight (g), Mean ([3]; Day 21, 10 mg/kg once daily): 0.89 g
